Data on two molecules can be found in publication PMC4956231, “Molecular Mechanisms for Drug Hypersensitivity Induced by the Malaria Parasite’s Chloroquine Resistance Transporter” (PLoS Pathogens, 2016).

Test [1] has as its system PfCRT^Dd2. Put plainly: [3H]drug transport into Xenopus oocytes expressing PfCRT. The conditions noted are these: PfCRT^Dd2-expressing oocytes; [3H]CQ […], pH 5.5, 15 μM unlabeled CQ (S5 Fig). The format is cell-based, Plasmodium falciparum. Here is the method: (§1) For each treatment, 10 oocytes were transferred to a 5 mL polystyrene round bottom tube (Falcon) and washed twice with 3.5 mL of ND96 buffer, with the residual buffer removed by pipette. […] The assay was terminated by removing the reaction buffer with a pipette and washing the oocytes twice with 3.5 mL of ice-cold ND96 buffer. Each oocyte was transferred to a separate well of a white 96-well plate (NUNC or PerkinElmer), incubated overnight at room temperature in 30 μL of 10% SDS, and mixed on an orbital shaker the following day for approximately 5 min. The lysed oocyte was then combined with 150 μL of MicroScint-40 microscintillant (PerkinElmer), the plate covered with a TopSeal-A (PerkinElmer), and the radioactivity measured with a PerkinElmer MicroBeta^2 microplate liquid scintillation analyzer.

The next test relates to 76N-PfCRT^K1. Described as above. The test is classed as cell-based, Plasmodium falciparum. The conditions noted are these: transport via 76N-PfCRT^K1 in oocytes, CQ pH 6.0, quinine and quinidine pH 5.0. The method, then:
as §1
Note that noninjected oocytes and oocytes expressing PfCRT^3D7 take up [^3H]CQ to similar (low) levels via simple diffusion of the neutral species of the drug; this represents the ‘background’ level of [^3H]CQ accumulation in oocytes (refer to Martin et al. for full data and discussion).

Test [2] has as its system P. falciparum isolate HON. The conditions noted are these: HON (PfCRT^3D7); IC50 in line divided by IC50 in drug-sensitive reference strain; cited from earlier work.
The next test has as its system P. falciparum Dd2. The conditions noted are these: Dd2 (PfCRT^Dd2); IC50 in line divided by IC50 in drug-sensitive reference strain; cited from earlier work.
In test [3] the test system is P. falciparum line 106/1^76T. The conditions noted are these: 106/1^76T (PfCRT^K1); IC50 in line divided by IC50 in drug-sensitive reference strain; cited from earlier work.
The test system of test [4] is P. falciparum line 106/1^72R,76I. Conditions: 106/1^72R,76I (72R,76I-PfCRT^K1); IC50 in line divided by IC50 in drug-sensitive reference strain; cited from earlier work.
Test [5] concerns P. falciparum line 106/1^76I,352K. The conditions noted are these: 106/1^76I,352K (76I,352K-PfCRT^K1); IC50 in line divided by IC50 in drug-sensitive reference strain; cited from earlier work.
Test [6] concerns PfCRT^K1. Conditions: oocytes; cited from earlier work.
In a further test the test system is 163R,356V-PfCRT^K1. Put plainly: [3H]drug transport into Xenopus oocytes expressing PfCRT. The test is classed as cell-based, Plasmodium falciparum. The conditions noted are these: oocytes expressing 163R,356V-PfCRT^K1; pH 5.0, 50 μM unlabeled amantadine. Here is the method:
as §1

Test [7] deals with 76K-PfCRT^K1. Described as above. The format is cell-based, Plasmodium falciparum. Conditions: oocytes expressing 76K-PfCRT^K1; pH 5.0, 50 μM unlabeled amantadine. The method, then:
as §1

Test [8] concerns the target T1, 76I-PfCRT^K1 (Plasmodium falciparum, UniProt Q9N623, A220S/K76I/M74I/N326S/N75E/Q271E/R371I). Kind of test: Inhibition of PfCRT-mediated [3H]CQ transport in oocytes. The test is classed as cell-based. Conditions: via 76I-PfCRT^K1 in oocytes. Here is the method: as §1
The IC50 values presented in Fig 3A were determined in SigmaPlot by a least-squares fit of the equation y = y min + [(y max—y min)/(1 + ([inhibitor]/IC50)c] to the data, where y is PfCRT-mediated CQ transport, y min and y max are the minimum and maximum values of y, and c is a fitted constant. PfCRT-mediated CQ transport was calculated by subtracting the uptake measured in the control oocytes (oocytes expressing 76K PfCRT^K1) from that in oocytes expressing 76I-PfCRT^K1 or 76I,369F-PfCRT^K1.

The test system of test [9] is 76K-PfCRT^K1. Kind of test: Trans-stimulation of [3H]CQ uptake by microinjected compound in oocytes. The format is cell-based, Plasmodium falciparum. The conditions noted are these: oocytes expressing 76K-PfCRT^K1, microinjected amantadine. Here is the method: (§2) A subset of experiments measured the ability of unlabeled amantadine to trans-stimulate the uptake of [^3H]CQ into the oocyte. Immediately prior to the commencement of the experiment, the oocytes (days 3–4 post-injection of the cRNA) were microinjected with either amantadine (estimated intracellular concentrations of 1, 2.5, 5, 10, 15, or 20 mM) or a control treatment (buffer, spermine, or histidine; the estimated intracellular concentrations of spermine and histidine were 5 and 10 mM). The volume injected was 50 nL and the intracellular concentrations were calculated using previous estimates of the volume of stage V-VI oocytes (~400 nL [77]). The resealed oocytes were then incubated at 16–18°C in OR^2+ buffer for approximately 5 min and the influx of [^3H]CQ was measured as described above. […] The Michaelis-Menten equation was then fitted to the data to derive the kinetic parameters for the trans-stimulation of [^3H]CQ transport by amantadine.

A further test deals with PfCRT^3D7. Described as above. The conditions noted are these: oocytes expressing PfCRT^3D7, microinjected amantadine. The format is cell-based, Plasmodium falciparum. Here is the method: as §2
For test [10], the system named is PfCRT^Dd2. The description is as above. The test is classed as cell-based, Plasmodium falciparum. The conditions noted are these: oocytes expressing PfCRT^Dd2 microinjected with unlabeled amantadine. Here is the method: as §2
In test [11] the test system is PfCRT^K1. Described as above. The test is classed as cell-based, Plasmodium falciparum. The method, then:
as §2

In another test the target is 76I,369F-PfCRT^K1 (Plasmodium falciparum, UniProt Q9N623, A220S/K76I/M74I/N326S/N75E/Q271E/R371I/V369F). The description is as above. The test is classed as cell-based. Here is the method:
as §2

The target of test [12] is T1, 76I-PfCRT^K1. Described as above. The format is cell-based. Here is the method: as §2
Another test addresses PfNT1 (Plasmodium falciparum, UniProt Q8IDM6). Described as above. The test is classed as cell-based. The conditions noted are these: oocytes expressing PfNT1, microinjected amantadine. The method, then:
as §2

A further test deals with noninjected oocytes. Described as above. The format is cell-based, Xenopus laevis. Conditions: microinjected amantadine. Here is the method: as §2

Marks after values point to notes of the source that are not given here.

T1 sequence (Q9N623 whole entry A220S/K76I/M74I/N326S/N75E/Q271E/R371I): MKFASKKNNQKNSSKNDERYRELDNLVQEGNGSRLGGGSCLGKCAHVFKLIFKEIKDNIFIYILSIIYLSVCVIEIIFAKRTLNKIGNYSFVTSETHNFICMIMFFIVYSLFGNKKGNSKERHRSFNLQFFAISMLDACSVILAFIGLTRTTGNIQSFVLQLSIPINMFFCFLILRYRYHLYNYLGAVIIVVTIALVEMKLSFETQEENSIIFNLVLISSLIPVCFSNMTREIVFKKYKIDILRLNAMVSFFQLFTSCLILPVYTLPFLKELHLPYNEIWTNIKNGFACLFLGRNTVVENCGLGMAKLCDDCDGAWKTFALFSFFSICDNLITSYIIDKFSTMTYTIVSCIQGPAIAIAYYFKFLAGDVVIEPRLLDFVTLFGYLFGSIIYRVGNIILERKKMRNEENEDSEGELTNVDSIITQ
Sequence of 76I,369F-PfCRT^K1 (Q9N623 whole entry A220S/K76I/M74I/N326S/N75E/Q271E/R371I/V369F): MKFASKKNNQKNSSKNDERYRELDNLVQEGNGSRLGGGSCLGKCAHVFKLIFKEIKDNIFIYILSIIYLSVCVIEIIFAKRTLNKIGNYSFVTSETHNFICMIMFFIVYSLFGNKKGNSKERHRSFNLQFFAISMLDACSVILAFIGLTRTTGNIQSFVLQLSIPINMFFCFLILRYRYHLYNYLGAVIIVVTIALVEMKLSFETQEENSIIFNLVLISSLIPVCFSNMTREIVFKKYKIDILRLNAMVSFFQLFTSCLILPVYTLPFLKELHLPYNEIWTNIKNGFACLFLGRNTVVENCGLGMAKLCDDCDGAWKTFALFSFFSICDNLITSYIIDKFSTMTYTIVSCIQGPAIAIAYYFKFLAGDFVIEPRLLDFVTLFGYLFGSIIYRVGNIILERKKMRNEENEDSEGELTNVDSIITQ
Sequence of PfNT1 (Q8IDM6 whole entry): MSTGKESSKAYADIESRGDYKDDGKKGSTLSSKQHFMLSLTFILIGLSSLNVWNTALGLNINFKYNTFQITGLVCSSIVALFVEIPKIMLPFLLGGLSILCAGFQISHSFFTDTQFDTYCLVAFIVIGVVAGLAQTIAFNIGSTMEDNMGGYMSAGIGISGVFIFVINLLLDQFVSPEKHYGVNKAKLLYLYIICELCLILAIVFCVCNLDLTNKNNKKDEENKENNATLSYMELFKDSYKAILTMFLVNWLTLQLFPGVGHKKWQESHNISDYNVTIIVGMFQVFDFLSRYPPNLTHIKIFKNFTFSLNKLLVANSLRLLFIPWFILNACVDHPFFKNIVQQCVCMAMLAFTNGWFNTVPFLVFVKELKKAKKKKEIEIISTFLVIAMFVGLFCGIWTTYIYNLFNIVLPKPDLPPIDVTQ

As to `CCN(CC)CCCC(C)Nc1ccnc2cc(Cl)ccc12` (centres unmarked) [CQ, chloroquine], the “rate of CQ uptake” value in the test with PfCRT^Dd2 [1] was 24 ± 1.3 pmol per oocyte/h. In addition, the “Apparent Vmax” value in the test on 76N-PfCRT^K1 was 48.0 ± 4.5^c,f (7) pmol per oocyte/h. Moreover, the Km in the test with 76N-PfCRT^K1 (read-out: Apparent Km) came out at 303 ± 5 µM. The “Drug susceptibility (In vitro resistance index)” value in test [2] is on record as 1; in the test on P. falciparum Dd2 it was 11.78 ± 0.18; in [3], 12.95 ± 0.95; in test [4], 1.13 ± 0.07; in test [5], 0.91 ± 0.09. The “CQ transport activity of PfCRT^K1, higher than that of PfCRT^Dd2” value in the test with PfCRT^K1 [6] was ~ 20%.

Take `NC12CC3CC(CC(C3)C1)C2` [amantadine]: the “[3H]amantadine accumulation relative to background” value in the test with 163R,356V-PfCRT^K1 and with 76K-PfCRT^K1 [7] was “failed to take up” throughout. Also, the IC50 on 76I-PfCRT^K1 [8] turned out to be 186 ± 16 µM. In addition, the “effect on accumulation of [3H]CQ (trans-stimulation)” value with 76K-PfCRT^K1 [9], in the test on PfCRT^3D7, on PfNT1 and in the test with noninjected oocytes was “did not affect” in each case. For the same molecule, the “increase in the rate of CQ influx (trans-stimulation)” value with PfCRT^Dd2 [10] is 6.7 ± 0.3 pmol per oocyte/h; in the test on PfCRT^K1 [11] (oocytes expressing PfCRT^K1 microinjected with unlabeled amantadine), 6.4 ± 0.2 pmol per oocyte/h; at 76I,369F-PfCRT^K1 (oocytes expressing 76I,369F-PfCRT^K1 microinjected with unlabeled amantadine) it was 0.43 ± 0.02 pmol per oocyte/h; at 76I-PfCRT^K1 [12] (oocytes expressing 76I-PfCRT^K1 microinjected with unlabeled amantadine), 0.68 ± 0.04 pmol per oocyte/h. Also, the “Hill coefficient (trans-stimulation of [3H]CQ uptake)” value with PfCRT^K1 [11] (PfCRT^K1) amounted to 1.63 ± 0.12; on 76I,369F-PfCRT^K1 (76I,369F-PfCRT^K1), 1.46 ± 0.05; at 76I-PfCRT^K1 [12] (76I-PfCRT^K1), 1.49 ± 0.07.

For orientation: Km means the substrate concentration at which the rate is half of its maximum. As usually defined, the IC50 is the point on the concentration scale where inhibition reaches its midpoint.
